Source: patent US20190248739A1 (NEWLINK GENETICS CORPORATION, priority 2015, published 2019)
Read-outs that look alike come from different tables or passages of the source.

Key:
[1] = pharmacokinetic testing of indoximod prodrug salts in solid capsule formulation in cynomolgous monkeys
[2] = human pharmacokinetics of oral indoximod; type: in vivo; details: plasma
[3] = pharmacokinetic testing of indoximod prodrugs in liquid formulation in mice; details: for AUC(0-inf) / Cmax / Tmax / half-life: mouse, plasma, po; for % Change in Norm. Cmax / % Increase in Norm AUC: vs indoximod, Mouse, PO solution, salt form FB
Procedure: Blood samples (0.1-0.2 mL) were collected from the femoral artery port from rats or by retro-orbital bleeding from mice and plasma was immediately collected by centrifugation and stored on dry ice to avoid prodrug hydrolysis after plasma collection. […] The pharmacokinetic parameters reflect the average of individual parameter values obtained from each individual rat (n) or one common parameter from a single pharmacokinetic curve derived from blood samples obtained from a group of mice (n).

[4] = solubility of indoximod and its salts in water, buffers and SGF; type: physicochemical
[5] = indoximod plasma exposure in murine antitumor experiments; type: in vivo; details: mice; for exposure: ~500 mg/kg/day or oral 200 mg/kg bid
[6] = crossover pharmacokinetic study of indoximod free base, salts and SDD in cynomolgus monkeys; type: in vivo; details: male, cynomolgus monkey, plasma, po; for AUC(0-t): oral, read-out: AUC(0 −> 48 h)
Procedure: The SDD suspension formulations were prepared in 0.5% methylcellulose (Methocel).

[7] = hygroscopicity and stability of indoximod and its salts; type: physicochemical
[8] = in-vitro dissolution test of SDD formulations in simulated gastric buffer (GB) and simulated intestinal fluid (SIF); type: physicochemical
Procedure: In this study, SDD formulations were made by two methods: hot process spray dry—formulation solution heated up to 110° C. before spraying dry, and basic spray dry—formulation pH raised up to ˜11.5 (room temperature) before spraying dry. The performance of each SDD formulation was investigated by in-vitro dissolution test in simulated gastric buffer (GB) and simulated intestinal fluid (SIF). […] In addition, higher drug load in the powder was preferred since it could decrease the dose amount of the final formulation. Based on all these criteria, two SDD formulations were selected for further in vivo PK studies in monkeys.

[9] = pharmacokinetic testing of indoximod salts in capsule formulation in rats; type: in vivo; details: rat, plasma, po, capsules
Procedure: Three dose levels were investigated: 37, 185 or 500 μmol/kg.
Capsules were manually filled and the composition uniformity of a representative sample of capsules from each batch was verified by weight and by LC-MS/MS to determine the average indoximod content.
(§1) Rats were fasted 16 h prior to dosing to eliminate any confounding food effects, and food was returned 2 h after dosing.

[10] = pharmacokinetic testing of indoximod prodrug salts in solid capsule formulation in rats; type: in vivo; details: for % Change Cmax / % Change in AUC: vs indoximod free base
Procedure: These blends were formulated so that each capsule contained the same molar dose of each prodrug. […] The composition and uniformity of a representative sample of capsules from each batch was verified by weight and by LC-MS/MS to determine the average indoximod or prodrug content.
as §1

[11] = tested on: ectopic melanoma, colon and lung tumors, breast tumor models; details: cited from earlier work
[12] = indoximod, cynomolgous monkeys, oral capsules, dose 275 μmol/kg, salt form free base
[13] = Table 10.1, rats, oral capsules, dose 37 μmol/kg, salt form free base
[14] = Table 10.1, rats, oral capsules, dose 185 μmol/kg, salt form free base
[15] = Table 10.1, rats, oral capsules, dose 500 μmol/kg, salt form free base
[16] = Table 10.2, indoximod, rats, oral capsules, dose 37 μmol/kg, salt form free base
[17] = Table 10.2, indoximod, rats, oral capsules, dose 185 μmol/kg, salt form free base
[18] = Table 10.2, indoximod, rats, oral capsules, dose 500 μmol/kg, salt form free base
[19] = Table 10.2, rats, oral capsules, dose 37 μmol/kg, salt form free base
[20] = Table 10.2, rats, oral capsules, dose 185 μmol/kg, salt form free base
[21] = Table 10.2, rats, oral capsules, dose 500 μmol/kg, salt form free base

## Cn1cc(C[C@@H](N)C(=O)O)c2ccccc21 [indoximod, 1-methyl-D-tryptophan, reference compound]
[1]; indoximod, cynomolgous monkeys, oral capsules, dose 92 μmol/kg, salt form free base
  AUC(0->∞): 38.5 ± 4 µM·h
[1]; [12]
  AUC(0->∞): 74.9 ± 5 µM·h
  Cmax: 17.5 ± 3 µM
[1]; monkey, blood, po, 92 umol/kg
  Cmax: 8.2 ± 0.4 µM
[1]; monkey, blood, po, 875 umol/kg
  AUC(0-inf): 165 ± 52 µM·h
  Cmax: 27.8 ± 8 µM
[2]
  Tmax: ~3 h
  half-life: ~10 h
[2]; patients, up to 800 mg/dose, read-out: drug exposure (AUC(0-last))
  AUC(0-t): ~100 µM·h
[2]; po, 800 mg/dose, patients, about 800 mg/dose, read-out: maximum plasma concentration (Cmax)
  Cmax: 15 µM
[2]; ~800 mg/dose
  AUC(0-inf): 100 µM·h
[3]; 10 mg/kg
  AUC(0-inf): 34 µM·h
  Cmax: 9 µM
  Tmax: 0.5 h
  half-life: 1.8 h
[3]; 100 mg/kg
  AUC(0-inf): 325 µM·h
  Cmax: 43 µM
  Tmax: 1 h
  half-life: 3.5 h
[3]; dose 10 mg/kg
  % Change in Norm. Cmax: 0%
  % Increase in Norm AUC: 0%
[3]; dose 100 mg/kg
  % Change in Norm. Cmax: 0%
  % Increase in Norm AUC: 0%
[4]; 25° C., SGF solubility test, listed as Free base
  pH of the SGF solution (in brackets): 2.32
[4]; 25° C., SGF, listed as Free base
  Solubility (25° C., mg/mL) SGF: 3.6 mg/mL
[4]; 25° C., water solubility test, listed as Free base
  pH of the water solution (in brackets): 6.03
[4]; 25° C., water, listed as Free base
  Solubility (25° C., mg/mL) Water: 1.8 mg/mL
[4]; aqueous solutions, buffered or un-buffered, pH 2, aqueous buffer, pH 2-8
  solubility: 1800 to 2000 µg/mL
[5]
  exposure: greater than 300 μM.h
[5]; listed as Indoximod
  exposure: > 300 µM·h
[5]; mouse, plasma, drinking water 3 mg/mL (~500 mg/kg/day) or oral 200 mg/kg bid
  Cmax: > 20 µM
[6]; 275 umol/kg
  Cmax: 12.9 ± 3.3 µM
[6]; 275 umol/kg, 275 μmol/kg
  AUC(0-t): 66 ± 17 µM·h
[6]; 825 umol/kg
  Cmax: 25.6 ± 12.8 µM
[6]; 825 umol/kg, 825 μmol/kg
  AUC(0-t): 127 ± 73 µM·h
[7]; 0-80%RH
  hygroscopicity (weight gain): 0.09%
[7]; 0.1 N HCl and 50 mM phosphate buffers pH 2-8, 25° C., 24 hours
  stability in solution: stable
[7]; 25° C/60%RH, 40° C., 40° C/75%RH, 60° C. and 70° C. for 4 weeks
  chemical stability of the solid powder form: chemically stable
[7]; Table 2, listed as Free base, in % (unit assumed)
  Hygroscopicity (0-80% RH): 0.09
[8]; SIF, 90 min, after ultracentrifugation
  UltraC90: 1,849 μg/mL
[8]; SIF, 1200 min, after ultracentrifugation
  UltraC1200: 1,854 μg/mL
[8]; maximum indoximod concentration, dissolved in GB for 30 min
  CmaxGB: 5,154 μg/mL
[8]; maximum indoximod concentration, dissolved in SIF for 90 min
  Cmax90: 2,213 μg/mL
[9]; 37 umol/kg
  AUC(0-inf): 390 ± 166 µM·h
[9]; 185 umol/kg
  AUC(0-inf): 1080 ± 478 µM·h
  Cmax: 20.8 ± 4 µM
[9]; 500 umol/kg
  AUC(0-inf): 2870 ± 1380 µM·h
[10]; [13]
  % Change Cmax: 0%
  % Change in AUC: 0%
[10]; [14]
  % Change Cmax: 0%
  % Change in AUC: 0%
[10]; [15]
  % Change Cmax: 0%
  % Change in AUC: 0%
[10]; [16]
  AUC(0->∞): 390 ± 166 µM·h
  Cmax: 15.9 ± 8 µM
[10]; [17]
  AUC(0->∞): 1080 ± 478 µM·h
  Cmax: 20.8 ± 4 µM
[10]; [18]
  AUC(0->∞): 2871 ± 1379 µM·h
  Cmax: 76.2 ± 25 µM
[10]; [19]
  % Change Cmax: 0%
  % Change in AUC: 0%
[10]; [20]
  % Change Cmax: 0%
  % Change in AUC: 0%
[10]; [21]
  % Change Cmax: 0%
  % Change in AUC: 0%
[10]; Table 10.3, indoximod, rats, oral capsules, dose 37 μmol/kg, salt form free base
  Cmax: 15.9 ± 8 µM
[10]; Table 10.3, indoximod, rats, oral capsules, dose 185 μmol/kg, salt form free base
  Cmax: 20.8 ± 4 µM
[10]; Table 10.3, indoximod, rats, oral capsules, dose 500 μmol/kg, salt form free base
  Cmax: 76.2 ± 25 µM
[10]; rat, plasma, po, 37 umol/kg
  AUC(0-inf): 390 ± 166 µM·h
  Cmax: 15.9 ± 8 µM
[10]; rat, plasma, po, 185 umol/kg
  AUC(0-inf): 1080 ± 478 µM·h
  Cmax: 20.8 ± 4 µM
[10]; rat, plasma, po, 500 umol/kg
  AUC(0-inf): 2870 ± 1380 µM·h
  Cmax: 76.2 ± 25 µM
[11]; in combination with chemotherapy
  antitumor effect: demonstrates antitumor effects
[11]; melanoma models, combination with anti-CTLA4 (ipilimumab)
  antitumor effect: synergistic antitumor effect
